From patent US20230270721A1, “INHIBITION OF BAX-MEDIATED CELL DEATH BY ELTROMBOPAG” (Albert Einstein College of Medicine, priority 2020, published 2023)

Tests used:
[1] = target: T1, BAX (Homo sapiens, UniProt Q07812); assay: Recombinant BAX TM (Tycho NT.6); type: binding; details: 1:10 BAX:EO
T1 construct: Human full-length (1-192) wild-type BAX (Q07812); made in house; host or cells: E. coli BL21 (DE3) CodonPlus (DE3)-RIPL
Procedure: Purified recombinant BAX ([…]) was combined with DMSO or EO (1:10 BAX:EO) and loaded into Tycho NT.6 (NanoTemper Technologies) capillaries. First derivative (330/350 nm) melting point curves were generated automatically using the Tycho NT.6 (NanoTemper Technologies). Data was exported and to GraphPad PRISM software for analysis and visualization.
To confirm direct engagement of BAX, Cellular Thermal Shift Assay (CETSA) was performed in BAK KO MEFs.

[2] = target: T2, BAX R134E (Homo sapiens, UniProt Q07812, R134E); assay: Liposomal permeabilization assay, trigger site mutant R134E; type: biochemical; details: 250 nM BAX and 5 nM tBID
T2 construct: Human full-length (1-192) wild-type BAX (Q07812); made in house; host or cells: E. coli BL21 (DE3) CodonPlus (DE3)-RIPL
T2 sequence (Q07812 whole entry R134E): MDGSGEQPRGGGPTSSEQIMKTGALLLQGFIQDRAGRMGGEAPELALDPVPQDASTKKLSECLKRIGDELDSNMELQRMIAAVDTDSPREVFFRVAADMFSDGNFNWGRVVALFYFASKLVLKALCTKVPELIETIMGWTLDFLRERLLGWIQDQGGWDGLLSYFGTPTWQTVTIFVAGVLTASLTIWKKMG
Procedure: Lipids (Avanti Polar Lipids) at the following ratio, phosphatidylcholine 48%, phosphatidylinositol 10%, dioleoyl phosphatidylserine 10%, phosphatidylethanolamine, 28%, and tetraoleoyl cardiolipin 4%, were mixed in a total of 1 mg, dried and resuspended in 10 mM HEPES, pH 7, 200 mM KCI, and 5 mM MgCl2 with 12.5 mM 8-aminonaphthalene-1,3,6-trisulfonic acid (ANTS) dye and 45 mM p-xylene-bis-pyridinium bromide (DPX) quencher (Molecular Probes) using a water bath sonicator. Liposomes were formed by extrusion of the suspension using Avanti Mini-Extruder (Cat # 610000) with polycarbonate membranes of 0.1 µm pore size (Avanti Polar Lipids). […] ANTS/DPX release was quantified based on the increase in fluorescence intensity that occurs when the ANTS fluorophore is separated from the DPX quencher upon release from the liposomes into solution. Fluorescence (λex = 355 nm and λem = 520 nm) was measured at 1 minute intervals at room temperature (22-25° C.) indicated using a Tecan Infinite M1000 plate reader. In the case of heat activation, reactions were set up as described in the absence of tBID or BIM, and experiments were recorded at 42° C. The percentage release of ANTS/DPX at any given time point was calculated as percentage release=((F-F0)/(F100-F0))(100), where F0 and F100 are baseline and maximal fluorescence, respectively. […]

[3] = system: platelets of C57BL/6J mice; assay: In vivo mouse platelet experiments; details: co-administration: ABT-263 25 mg/kg + EO 100 mg/kg then 50 mg/kg 3 hrs later, oral gavage, 24 hours
Procedure: Wild type black mice strain C57BL/6J were treated with vehicle, ABT-263 (25 mg/kg, single dose), EO (100 mg/kg, then 3 hrs later 50 mg/kg), or a combination of ABT-263 and EO. EO was formulated in dH2O, and ABT-263 was formulated in 10% ethanol, 30% polyethylene glycol 400, and 60% Phosal 50 PG. Both ABT-263 and EO were administered by oral gavage. Blood samples were collected by submandibular bleed before treatment and 24 hours following treatment, and CBC was acquired. Percentage platelet protection was calculated as follows: % Platelet Protection = (100)(Px - mPABT)/(mPv - mPABT) where Px is the platelet count for a given mouse, mPv is the mean vehicle treated platelet count, and mPABT is the mean ABT-263 treated platelet count. Statistical analysis was performed using one-way ANOVA with select multiple comparisons as shown.
Finally, whether EO can rescue thrombocytopenia induced by the activity of navitoclax was evaluated in mice. The use of navitoclax is limited by on-target toxicity triggering BAK/BAX-mediated platelet apoptosis (Zhang, H. et al. Cell Death Differ 14, 943-951 (2007)). […] This EO effect is distinct from its capacity to stimulate platelet production by differentiation of the megakaryocyte precursors and progenitor cells, which requires 5 days to begin (Erickson-Miller, C. L. et al. Stem Cells 27, 424-430 (2009); Jenkins, J. M. et al. Blood 109, 4739-4741 (2007)).

[4] = system: BAK KO MEFs; assay: Mitochondrial translocation of cytosolic BAX in cells; type: cell-based, mouse; details: BIM BH3 or 2 µM staurosporine (STS); 10 or 20 µM EO
Source text: FIGS. 7A, 7B, 7C, 7D, 7E, and 7F are a set of diagrams showing that eltrombopag inhibits BAX translocation and BAX-mediated apoptosis in cells. […] BAX translocation is based on antibody-based detection of BAX and mitochondrial protein TOMM20. Representative confocal micrographs from three independent biological experiments. Scale bar, 20 µm. […] Data represent ±SEM of three independent biological replicates. Two-sided t test, ****P < 0.0001; ***P < 0.001; **P < 0.01; *P < 0.05; ns, P > 0.05. […] Actin and VDAC are loading controls for cytosolic and mitochondrial fractions, respectively. FIGS. 7D and 7E show a caspase 3/7 assay of BAK-/- mouse embryonic fibroblasts (MEFs) (FIG. 7D) and BAX-/-MEFs (FIG. 7E) in response to 3 µM STS and the presence or absence of various doses of EO for 6 hr. […]
It is important to note that THPO-receptor agonist activity of EO is highly specific to the human and chimpanzee THPO-receptors, making mouse cell lines ideal for studying EO modulation of BAX-dependent activity independent of THPO-mediated effects (Erickson-Miller, C. L. et al. Stem Cells 27, 424-430 (2009)). First, mitochondrial cytochrome c release, a hallmark of BAX activation and BAX-dependent apoptosis, was evaluated. […] Next, mitochondrial translocation of cytosolic BAX upon treatment with either BIM BH3 or staurosporine (STS) in BAK KO MEFs was evaluated.

T1 sequence (Q07812 whole entry): as the sequence (Q07812 whole entry R134E) above, with E134R counted along it

Compound: CC1=NN(c2ccc(C)c(C)c2)C(=O)/C1=N\Nc1cccc(-c2cccc(C(=O)O)c2)c1O [EO, eltrombopag]
- change in TM of recombinant BAX [1]: comparable reduction in TM
- inhibition of liposomal release versus BAX WT [2]: slight trend towards weaker inhibition
- navitoclax-induced platelet loss [3]: markedly inhibited platelet loss to acceptable levels
- mitochondrial translocation of cytosolic BAX [4]: capable of inhibiting BAX translocation
